Consider 5 compounds from PMC6003606 (Chemical Science, 2016).

The term IC50 denotes the midpoint of a concentration-inhibition curve.

Like-named read-outs stand apart in the source and are kept apart here.

In data set [1] the test system is A375. The experiment in a line: Cytotoxicity, 72 h exposure, melanoma. It is filed as cell-based, human. The conditions noted are these: A375, 72 h exposure.
Data set [2] relates to cancer cell lines (panel). The experiment in a line: Cytotoxicity averaged or compared over the cancer cell line panel. As to conditions: for IC50: read-out: average IC50. It is filed as cell-based, human.
Data set [3] has as its system HCT-15. The experiment in a line: Cytotoxicity, 72 h exposure, colon carcinoma. It is filed as cell-based, human. The conditions noted are these: HCT-15, 72 h exposure.
For data set [4], the system named is BxPC3. The experiment in a line: Cytotoxicity, 72 h exposure, pancreatic carcinoma. The conditions noted are these: BxPC3, 72 h exposure. It is filed as cell-based, human.
The subject of data set [5] is A498. The experiment in a line: Cytotoxicity, 72 h exposure, kidney carcinoma. It is filed as cell-based, human. As to conditions: A498, 72 h exposure.
In data set [6] the test system is A549. The experiment in a line: Cytotoxicity, 72 h exposure, lung carcinoma. It is filed as cell-based, human. As to conditions: A549, 72 h exposure.
Data set [7] deals with PC3. The experiment in a line: Cytotoxicity, 72 h exposure, prostate carcinoma. It is filed as cell-based, human. The conditions noted are these: PC3, 72 h exposure.
Data set [8] has as its system A2780cisR. The experiment in a line: Cytotoxicity, 72 h exposure, cisplatin-resistant ovarian cancer cells. It is filed as cell-based, human.
Data set [9] relates to A2780. The experiment in a line: Cytotoxicity, 72 h exposure, cisplatin-sensitive ovarian cancer cells. It is filed as cell-based, human. The conditions noted are these: A2780, 72 h exposure.
Data set [10] has as its system MCF-7. The experiment in a line: Cytotoxicity, 72 h exposure, breast carcinoma. It is filed as cell-based, human. The conditions noted are these: MCF-7, 72 h exposure.
Data set [11] relates to HDAC activity in MCF-7 cells. As to conditions: free ligand; reported values, no reference given; cited from earlier work.
[12] abbreviates: average over the seven cancer cell lines.
Setting [13] is: average over five cancer cell lines.

Consider `N.N.[Cl][Pt][Cl]` [cisplatin], for which the half-inhibitory concentration (IC50) in [1] amounted to 4.03 ± 0.95 µM; in data set [2] (setting [12]), 10.3 µM; in data set [2] (over the nine cell lines), 9.9 µM; in data set [3] it was 11.3 ± 1.06 µM; in data set [4] it was 11.4 ± 1.14 µM; in [5], 17.5 ± 1.21 µM. Also, the IC50 in data set [6] is 8.35 ± 0.87 µM; in [7], 2.25 ± 0.82 µM; in data set [8], 13.8 ± 0.2 µM; in data set [9] it was 2.8 ± 0.2 µM; in data set [10], 17.4 ± 0.2 µM.

Take [Pt(DACH)(OH)2(ox)]: the IC50 was found to be 6.85 ± 1.55 µM in data set [1]; 13.2 µM in data set [2] (setting [13]); 18.9 ± 3.18 µM in [3]; 14.3 ± 2.09 µM in data set [4]; 24.4 ± 5.35 µM in data set [5]; 26.1 ± 2.89 µM in data set [6]. The 50% inhibitory concentration (IC50) in data set [7] was determined as 5.85 ± 1.08 µM; in [10] it was 19.9 ± 1.41 µM.

Regarding `O=C1[O][Pt]2([NH][C@@H]3CCCC[C@H]3[NH]2)[O]C1=O` [oxaliplatin], the 50% inhibitory concentration (IC50) in [1] was found to be 6.3 ± 1.11 µM; in data set [2] (setting [12]) it was 4.2 µM; in data set [3], 1.15 ± 0.43 µM; in [4], 4.15 ± 0.93 µM; in data set [5] it was 7.94 ± 1.04 µM; in data set [6] it was 1.46 ± 0.31 µM. Moreover, the IC50 in [7] stood at 5.24 ± 0.86 µM; in [8], 4.2 ± 1.6 µM; in [9], 0.52 ± 0.27 µM; in data set [10] it was 3.36 ± 0.2 µM.

Regarding `N.N.[Cl-].[Cl-].[OH-].[OH-].[Pt+4]` [IX, ctc-[Pt(NH3)2(OH)2Cl2]], the IC50 in [1] amounted to 1.93 ± 0.75 µM; in [2] (setting [13]) it was 7 µM; in data set [3], 15.3 ± 3.23 µM; in data set [4] it was 6.23 ± 1.47 µM; in [5], 22 ± 0.85 µM; in [6] it was 22.5 ± 4.54 µM. Also, the IC50 in [7] was determined as 2.98 ± 1.35 µM; in data set [10], 11.5 ± 3.71 µM.

In the case of `CCCC(CCC)C(=O)O` [VPA, valproate], the “cytotoxic IC50 of uncoordinated HDAC inhibitor ligands” value in data set [2] (tested cancer cell lines) is reported as “millimolar range”. The “IC50 of extracellular ligand for cellular HDAC activity” value in data set [11] is given as “mM range”.
